The values below come from patent US9598362B2, “Benzidine derivative, method for preparing same, and pharmaceutical composition containing benzidine derivative for treating liver disease caused by hepatitis C virus” (priority 2013, dated 2017).

Assay [1] relates to HCV (JFH-5aFlucm4). Put plainly: Evaluation of anti-HCV activity 1: huh7.5.1 cells inoculated with HCV carrying renilla luciferase reporter. The note with it: Hepatitis C virus. The assay is classed as cell-based. The method, then:
To evaluate the anti-HCV activity of the compound represented by formula 1 of the present invention, the following experiment was performed.
The hepatoma cell line huh7.5.1 was distributed in a 12-well cell culture plate at the density of 50,000 cells/well. The cells were cultured in DMEM (Dulbecco's Modified Eagle's Medium 12800-017, GIBCO Co.) supplemented with 10% (v/v) FBS (Fetal Bovine Serum SH30406.02, Hyclone Co.) and 1% (v/v) antibiotics (penicillin/streptomycin solution SV30010, Hyclone Co.) in a 37° C. 6.0% CO2 incubator (CO2 Incubator 311, Forma Scientific Co, Lnc. USA) for 24 hours to lead cell attachment on the plate. Then, the cells were inoculated with HCV (JFH-5aFlucm4, PLoS One. 2011; 6(8):e228808.) having renilla luciferase gene as a reporter for 3 hours. Upon completion of the virus inoculation, the cell culture medium was replaced with the medium containing the compounds prepared in Examples 1˜24 at the concentration of 1 μM each. The cells were cultured in a 37° C. 6.0% CO2 incubator (CO2 Incubator 311, Forma Scientific Co, Lnc. USA) for 3 days. Three days after the infection, the cell culture medium was collected to measure the cytotoxicity in the following Experimental Example 3. The cells attached on the plate were washed with PBS (phosphate buffered saline) and then lysed by treating 100 μl of 1× passive lysis buffer (Promega, E1941). The cell lysate (10 μl) was added to renilla luciferase assay reagent (50 μl) in renilla luciferase assay system (Promega, E2820), followed by measurement of luminescence for 10 seconds using the luciferase measure program with Luminometer (GLOMAX 20/20 Luminometer, Promega). At this time, the measurement of luminescence was performed in triplicate with the groups treated with the compounds of Examples 1˜24 and the non-treated control group. The mean value was calculated and compared. The luminescence of each compound over the concentration was converted into EC50 (half maximal effective concentration) by using sigma plot program, and the results are shown in Table 2.
On the technique in general: A reporter such as luciferase makes a cellular process visible.

The test system of assay [2] is HCV replicon NK/R2AN. Put plainly: Evaluation of anti-HCV activity 2: inhibition of HCV replication, huh7.5.1 cells with replicon NK/R2AN, renilla luciferase. The assay is classed as cell-based. As to conditions: for EC50: Hepatitis C virus; for EC50 (in words): duplicated HCV treated with compound. The method, then: To evaluate the anti-HCV activity, that is the activity to inhibit HCV replication, of the compound represented by formula 1 of the present invention, the following experiment was performed.
The hepatoma cell line huh7.5.1 having NK/R2AN, the replicon with which the replication and translation of HCV could be measured, was distributed in a 12-well cell culture plate at the density of 50,000 cells/well. The cells were cultured in DMEM (Dulbecco's Modified Eagle's Medium 12800-017, GIBCO Co.) supplemented with 10% (v/v) FBS (Fetal Bovine Serum SH30406.02, Hyclone Co.), 1% (v/v) antibiotics (penicillin/streptomycin solution SV30010, Hyclone Co.), and G418 (600 μg/mL, Calbiochem) in a 37° C. 6.0% CO2 incubator (CO2 Incubator 311, Forma Scientific Co, Lnc. USA) for 24 hours to lead cell attachment on the plate. Then, the cells were inoculated with HCV having renilla luciferase gene as a reporter for 3 hours. Upon completion of the virus inoculation, the cell culture medium was replaced with the medium containing the compounds prepared in Examples 1˜24 were added to the culture medium at the concentrations of 40 pM˜1 μM each. The cells were cultured in a 37° C. 6.0% CO2 incubator (CO2 Incubator 311, Forma Scientific Co, Lnc. USA) for 3 days. Three days after the infection, the cell culture medium was collected to measure the cytotoxicity in the following Experimental Example 3. The cells attached on the plate were washed with PBS (phosphate buffered saline) and then lysed by treating 100 μl of 1× passive lysis buffer (Promega, E1941). The cell lysate (10 μl) was added to renilla luciferase assay reagent (50 μl) in renilla luciferase assay system (Promega, E2820), followed by measurement of luminescence for 10 seconds using the luciferase measure program with Luminometer (GLOMAX 20/20 Luminometer, Promega). At this time, the measurement of luminescence was performed in triplicate with the groups treated with the compounds of Examples 1˜24 and the non-treated control group. The mean value was calculated and compared. The luminescence of each compound over the concentration was converted into EC50 (half maximal effective concentration) by using sigma plot program, and the results are shown in Table 3. At this time, when EC50 was under 100 pM, it was marked as A; when EC50 was in the range of 100 pM 1 nM, it was marked as B; when EC50 was in the range of 1 nM˜100 nM, it was marked as C; and when EC50 was over 100 nM, it was marked as D. The results are shown in Table 3.

The mark [3] stands for this setting: Huh-7.5.1, 72 h, read-out: EC50 grade.
Where [4] appears, read: Huh-7.5.1, replicon huh7.5.1 cells, Table 3, read-out: EC50.

Read-outs that look alike come from different tables or passages of the source.

As to `COC(=O)N[C@@H](C(=O)N1CCCC[C@@H]1C(=O)Nc1ccc(-c2ccc(NC(=O)[C@H]3CCCCN3C(=O)[C@H](NC(=O)OC)c3ccccc3)cc2)cc1)c1ccccc1` [Example 11, dimethyl((1R,1′R)-((2R,2′R)-2,2′-(([1,1′-biphenyl]-4,4′-diylbis(azandiyl))bis(carbonyl))bis(piperidine-2,1-diyl))bis(2-oxo-1-phenylethane-2,1-diyl))dicarbamate], the EC50 in assay [1] (setting [3]) and in assay [2] (setting [3]) was > 100 nM in each case.
On to `COC(=O)N[C@@H](C(=O)N1CCC[C@H]1C(=O)Nc1ccc(-c2ccc(NC(=O)[C@@H]3CCCN3C(=O)[C@H](NC(=O)OC)c3ccccc3)cc2C)c(C)c1)c1ccccc1` [Example 3, dimethyl((1R,1′R)-((2S,2′S)-2,2′-(((2,2′-dimethyl-[1,1′-biphenyl]-4,4′-diyl)bis(azandiyl))bis(carbonyl))bis(pyrrolidine-2,1-diyl))bis(2-oxo-1-phenylethane-2,1-diyl))dicarbamate], for which the EC50 was < 1 nM in assay [1] (Huh-7.5.1), < 1 nM in assay [1] (setting [3]), < 0.1 nM in assay [2] (setting [3]) and < 0.1 nM in assay [2] (setting [4]). Besides, the “EC50 (in words)” value in assay [2] was “significantly low”.
Consider `COC(=O)N[C@@H](C(=O)N1CCC[C@H]1C(=O)Nc1ccc(-c2ccc(NC(=O)[C@@H]3CCCN3C(=O)[C@H](NC(=O)OC)c3ccccc3)cc2Cl)c(Cl)c1)c1ccccc1` [Example 6, dimethyl((1R,1′R)-((2S,2′S)-2,2′-(((2,2′-dichloro-[1,1′-biphenyl]-4,4′-diyl)bis(azandiyl))bis(carbonyl))bis(pyrrolidine-2,1-diyl))bis(2-oxo-1-phenylethane-2,1-diyl))dicarbamate], for which the EC50 in assay [1] (Huh-7.5.1) is < 1 nM; in assay [1] (setting [3]), < 1 nM; in assay [2] (setting [3]), < 0.1 nM; in assay [2] (setting [4]), < 0.1 nM. Further, in assay [2], the “EC50 (in words)” value is “significantly low”.
In the case of `COC(=O)N[C@@H](C(=O)N1CCC[C@H]1C(=O)Nc1ccc(-c2ccc(NC(=O)[C@@H]3CCCN3C(=O)[C@H](NC(=O)OC)C(C)C)cc2)cc1)C(C)C` [Example 13, dimethyl(2R,2′R)-1,1′-((2S,2′S)-2,2′-(biphenyl-4,4′-diylbis(azandiyl))bis(oxomethylene)bis(pyrrolidine-2,1-diyl))bis(3-methyl-1-oxobutane-2,1-diyl)dicarbamate], the EC50 in assay [1] (setting [3]) was > 100 nM.
Regarding `COC(=O)N[C@@H](C(=O)N1CCC[C@H]1C(=O)Nc1ccc2c(c1)C(=O)c1cc(NC(=O)[C@@H]3CCCN3C(=O)[C@H](NC(=O)OC)c3ccccc3)ccc1-2)c1ccccc1` [Example 24, dimethyl((1R,1′R)-((2S,2′S)-2,2′-(((9-oxo-9H-fluorene-2,7-diyl)bis(azandiyl))bis(carbonyl))bis(pyrrolidine-2,1-diyl))bis(2-oxo-1-phenylethane-2,1-diyl))dicarbamate], the values for the EC50 in assay [1] (setting [3]), in assay [2] (setting [3]) and in assay [2] (setting [4]) were 1 to 100 nM, < 0.1 nM and < 0.1 nM, respectively. Further, the “EC50 (in words)” value in assay [2] is listed as “significantly low”.
Turning to `COC(=O)N[C@@H](C(=O)N1CCC[C@H]1C(=O)Nc1ccc(-c2ccc(NC(=O)[C@@H]3CCCN3C(=O)[C@H](NC(=O)OC)c3ccccc3)cc2C(F)(F)F)c(C(F)(F)F)c1)c1ccccc1` [Example 2, dimethyl((1R,1′R)-((2S,2′S)-2,2′-(((2,2′-bis(trifluoromethyl)-[1,1′-biphenyl]-4,4′-diyl)bis(azandiyl))bis(carbonyl))bis(pyrrolidine-2,1-diyl))bis(2-oxo-1-phenylethane-2,1-diyl))dicarbamate], the EC50 in assay [1] (Huh-7.5.1) was < 1 nM; in assay [1] (setting [3]) it was < 1 nM; in assay [2] (setting [3]), < 0.1 nM; in assay [2] (setting [4]), < 0.1 nM. Further, in assay [2], the “EC50 (in words)” value is “significantly low”.
`COC(=O)N[C@@H](C(=O)N1CCC[C@H]1C(=O)Nc1ccc(-c2ccc(NC(=O)[C@@H]3CCCN3C(=O)[C@H](NC(=O)OC)c3ccccc3)c(C)c2)cc1C)c1ccccc1` [Example 1, dimethyl((1R,1′R)-((2S,2′S)-2,2′-(((3,3′-dimethyl-[1,1′-biphenyl]-4,4′-diyl)bis(azandiyl))bis(carbonyl))bis(pyrrolidine-2,1-diyl))bis(2-oxo-1-phenylethane-2,1-diyl))dicarbamate]: the EC50 is > 100 nM in assay [1] (setting [3]) and 1 to 100 nM in assay [2] (setting [3]).
For `CCN(CC)[C@@H](C(=O)N1CCC[C@H]1C(=O)Nc1ccc(-c2ccc(NC(=O)[C@@H]3CCCN3C(=O)[C@@H](c3ccccc3)N(CC)CC)cc2)cc1)c1ccccc1` [Example 15, (S,2S,2′S)—N,N-(biphenyl-4,4′-diyl)bis(1-((S)-2-(diethylamino)-2-phenylacetyl)pyrrolidine-2-carboxamide)], in that order: 1 to 100 nM and 0.1 to 1 nM.
On to `O=C(Nc1ccc(-c2ccc(NC(=O)[C@@H]3CCCN3C(=O)[C@H]3CCCO3)cc2)cc1)[C@@H]1CCCN1C(=O)[C@H]1CCCO1` [Example 17], for which the 50% effective concentration (EC50) in assay [1] (setting [3]) is > 100 nM.
For the compound `COC(=O)N[C@@H](C(=O)N1CCC[C@H]1C(=O)Nc1ccc2c(c1)C(F)(F)c1cc(NC(=O)[C@@H]3CCCN3C(=O)[C@H](NC(=O)OC)c3ccccc3)ccc1-2)c1ccccc1` [Example 22, dimethyl((1R,1′R)-((2S,2′S)-2,2′-(((9,9-difluoro-9H-fluorene-2,7-diyl)bis(azandiyl))bis(carbonyl))bis(pyrrolidine-2,1-diyl))bis(2-oxo-1-phenylethane-2,1-diyl))dicarbamate], the EC50 in assay [1] (Huh-7.5.1) was < 1 nM; in assay [1] (setting [3]) it was < 1 nM; in assay [2] (setting [3]), < 0.1 nM; in assay [2] (setting [4]), < 0.1 nM. Further, in assay [2], the “EC50 (in words)” value is listed as “significantly low”.
With `COC(=O)N[C@@H](C)C(=O)N1CCC[C@H]1C(=O)Nc1ccc(-c2ccc(NC(=O)[C@@H]3CCCN3C(=O)[C@H](C)NC(=O)OC)cc2)cc1` [Example 18, dimethyl(2S,2′S)-1,1′-((2S,2′R)-2,2′-(biphenyl-4,4′-diylbis(azandiyl))bis(oxomethylene)bis(pyrrolidine-2,1-diyl))bis(1-oxopropane-2,1-diyl)dicarbamate], the EC50 in assay [1] (setting [3]) was > 100 nM.
For `COC(=O)N[C@H](C(=O)N1CCC[C@H]1C(=O)Nc1ccc(-c2ccc(NC(=O)[C@@H]3CCCN3C(=O)[C@@H](NC(=O)OC)C(C)C)cc2)cc1)C(C)C` [Example 20, dimethyl(2S,2′S)-1,1′-((2S,2′R)-2,2′-(biphenyl-4,4′-diylbis(azandiyl))bis(oxomethylene)bis(pyrrolidine-2,1-diyl))bis(3-methyl-1-oxobutane-2,1-diyl)dicarbamate], in assay [1] (setting [3]), the EC50 is > 100 nM.
Consider `COC(=O)N[C@H](C(=O)N1CCC[C@H]1C(=O)Nc1ccc(-c2ccc(NC(=O)[C@@H]3CCCN3C(=O)[C@@H](NC(=O)OC)C(C)(C)C)cc2)cc1)C(C)(C)C` [Example 19, dimethyl(2S,2′S)-1,1′-((2S,2′R)-2,2′-(biphenyl-4,4′-diylbis(azandiyl))bis(oxomethylene)bis(pyrrolidine-2,1-diyl))bis(3,3-dimethyl-1-oxobutane-2,1-diyl)dicarbamate], for which the EC50 in assay [1] (setting [3]) is 1 to 100 nM.

Usually EC50 stands for the midpoint of the concentration-response curve.
